# Reference: article PMC7405012, “Detection of Chaetomium globosum, Ch. cochliodes and Ch. rectangulare during the Diversity Tracking of Mycotoxin-Producing Chaetomium-like Isolates Obtained in Buildings in Finland” (Toxins, 2020)
# Where two headings read alike, the source gives them in different places.
# Assays:
# boar spermatozoa [1] = experiment: cells; format: cell-based; conditions: for EC50: Spermatozoa, read-out: EC50 BSMIM Boar Sperm 20 min
# boar spermatozoa [2] = experiment: cells; format: cell-based; conditions: for EC50: Spermatozoa, read-out: EC50 SMIDM Boar Sperm 2 h
# [3] = tested on: porcine kidney cells (PK-15); experiment: cells; format: cell-based; conditions: for EC50: Sus scrofa, 48 h, read-out: EC50 ICP PK-15 2 days
# [4] = tested on: murine neuroblastoma cells (MNA); experiment: Inhibition of cell proliferation (ICP) assay, MNA; format: cell-based; conditions: MNA, 2 days, 37 °C
# Method: The plate-grown biomass of the fungal pure cultures (100–300 mg) was extracted with ethanol as described earlier. The toxicity assays, namely BSMI assay after exposure for 30 min (rapid inhibition) and for one day (slow inhibition), SMID assay and ICP assay, were all described previously. The toxicity assays involving the ethanol extracts obtained from pure fungal cultures were performed using porcine cells (sperms and somatic cell lines) as indicators according to methods described before. The calculation of EC50—the half maximal effective concentration for the ethanol-dry substances and pure mycotoxins in the BSMI, SMID and ICP assays—were described previously.
# The continuous cell line PK-15 (porcine kidney cells) and a malignant cell line (MNA cell line) provided by EVIRA (Helsinki, Finland) were used in the ICP assay. 5,5′,6,6′-tetrachloro-1,1′,3,3′-tetraethyl-benzimidazolylcarbocyanine iodide (JC-1, 3520-43-2), PI (25535-16-4) and calcein-AM (148504-34-1) were obtained from Invitrogen (Carlsbad, CA, USA). Alamethicin A4665 (T. arundinaceum) (CAS 27061-78-5), a mixture of alamethicin F50 peptaibols (MW 1962, 1976, 1976 and 1990), chaetoglobosin A (CAS 50335-03-0), sterigmatocystin (CAS 10048-13-5) and ochratoxin A (CAS 303-47-9) were obtained from Sigma-Aldrich (St. Louis, MO, USA). Malt extract and tryptic soy agar were obtained from Scharlab (Barcelona, Spain). The other chemicals were of analytical grade and were purchased from local suppliers. The biocides and the wetting agent Genapol-080 were purchased from Sigma-Aldrich Finland. The fungicide Boracol 10Rh was obtained from a local supplier. The selected biocides were Borax (600 µg mL^−1; sodium tetraborate, CAS: 1330-43-4), Boracol 10Rh containing disodium octaborate tetrahydrate (CAS: 12280-03-04) and didecyldimethylammonium chloride [CAS: 7173-51-5]), PHMB (CAS: 27083-27-8), phenoxyethanol (CAS: 122-99-6), chloramine, triclosan (5-Chloro-2-(2,4-dichlorophenoxy)phenol, CAS: 3380-34-5) and the wetting agent Genapol X-080 (CAS: 9043-30-5). Genapol X-080 and the biocides were purchased from Sigma-Aldrich, except for Boracol 10Rh, which was purchased from a local supplier.
# resting boar spermatozoa [5] = experiment: Plasma membrane integrity of resting spermatozoa (SMIDR), calcein-AM + PI; format: cell-based; conditions: resting boar sperm, 24 °C; for CC50: Spermatozoa, 48 h, 2 days, read-out: EC50 Lethal Toxicity SMIDR 2 days
# Method: The long-term effects of exposure to chaetoglobosin A and to the chaetoglobosin-containing extracts of the Ch. globosum MTAV35 and MTAV37 strains were measured in resting sperm cells exposed at 24 °C for two days. Three criteria were assessed: (1) the motility inhibition of resting boar spermatozoa (BSMIR); (2) the change in mitochondrial membrane potential (ΔΨ) observed using the potentiometric dye JC-1; and (3) the plasma membrane integrity (SMIDR) observed using the viability stain calcein-AM + propidium iodide (PI). […] By contrast, the EC50 concentrations in the SMIDR assays, which measured the lethal damages in plasma membrane after incubation for two days, were >50 times higher (Figure 5 and Table 3).
# (§1) The boar sperm cells exposed for 2 days to commercial chaetoglobosin A and the crude extract of MTAV35 and MTAV37 were double-stained with the viability stains PI + calcein–AM, the SMIDR assay, as described earlier. The staining protocol was as follows: 200 μL of extended boar semen containing 27 × 10^6 sperm cells mL^−1 was mixed with 200 μL PBS containing 3 μg mL^−1 calcein-AM and 10 μg mL^−1 PI. The ΔΨm assay monitored the mitochondrial membrane potential changes (ΔΨm) by staining with the lipophilic potentiometric dye JC-1 as described by Mikkola et al. (2015). For the staining with JC-1 (35 µg mL^−1), 200 µL of the sperm cells were shaken and incubated at 37 °C for 5 min. After staining, the cells exposed in the SMIDR and the ΔΨm assays were inspected with fluorescence microscope using 400× magnification (Nikon Eclipse E600, Nikon Corporation, Tokyo Japan) with filters BP 450–490 nm/LP 520. The calcein–AM-stained cells with intact plasma membranes produced green fluorescence, whereas the PI-dyed cells with damaged plasma membranes produced red fluorescence. In JC-1 stained sperm cells, mitochondria with high membrane potential emitted yellow fluorescence, whereas depolarized mitochondria fluoresced green.
# (§2) The EC50 concentration in these microscopic assays was defined as the lowest concentration where the ratio of cells similar to those in the solvent control was less than 50%. This EC50 fitted between EC90 and EC10 observed in the microscope calculating ca. 100–120 sperm cells from three microscopic fields. The maximal difference between four parallel tests in each of the two methods was one dilution step. The assays were calibrated with triclosan.
# resting boar spermatozoa [6] = experiment: Motility inhibition of resting boar spermatozoa (BSMIR); format: cell-based; conditions: resting boar sperm; for EC50: Spermatozoa
# Method: (§3) Three criteria were assessed: (1) the motility inhibition of resting boar spermatozoa (BSMIR); (2) the change in mitochondrial membrane potential (ΔΨ) observed using the potentiometric dye JC-1; and (3) the plasma membrane integrity (SMIDR) observed using the viability stain calcein-AM + propidium iodide (PI). […] By contrast, the EC50 concentrations in the SMIDR assays, which measured the lethal damages in plasma membrane after incubation for two days, were >50 times higher (Figure 5 and Table 3).
# The procedure for the BSMIR assay measuring sublethal toxicity as motility inhibition, i.e., inability to respond to induction of motility in resting sperm cells is described below: The ethanol solutions (0.5–10 μL) were dispensed in 2000 μL of extended boar semen (Figen Ltd., Tuomikylä, Finland, density of 27 × 10^6 sperms mL^−1) incubated at 24 °C, and motility of the sperms was inspected in the phase-contrast microscope (400× magnification) with a heated stage, (Olympus CKX41, Tokyo, Japan; magnification 400×) and an image recording software (Cellsense® standard version 11.0.06, Olympus Soft Imaging Solutions GmbH, Münster, Germany, 2012) as described previously. […] The EC50 was calculated from the equation of the straight line between EC50-40 and EC80-90: Y = −ΔY/ΔX × X + C where Y is the motility closest to 50% of the motility of the solvent control, X is the EC50 concentration and C is a constant between 100% and 60%. All tests were run in triplicates and differences between replicate tests were within one dilution step (2-fold). The sperm assays were calibrated with triclosan and valinomycin.
# resting boar spermatozoa [7] = experiment: Mitochondrial membrane potential (ΔΨm) assay with JC-1 in resting spermatozoa; format: cell-based; conditions: resting boar sperm; for EC50: Spermatozoa
# Method: as §3, §1, §2
# resting PK-15 cells = experiment: Mitochondrial damage test: accelerated glucose consumption and extracellular acidosis; format: cell-based, porcine; conditions: for sublethal concentration that promoted the acceleration of glycolysis: PK-15 cells, positive controls for mitochondrial toxicity; for EC50: Sus scrofa
# Method: The mitochondria were depolarized in sperm cells exposed to sublethal concentrations of chaetoglobosin A (Figure 5) and to the chaetoglobosin-containing extracts (Table 3). This observation aroused the suspicion regarding mitochondrial toxicity. The mitochondrial toxicity of the extracts containing chaetoglobosin was assessed by measuring the accelerated glucose consumption in resting PK-15 cells. […] By contrast, the positive controls for mitochondrial toxicity—enniatin B, moniliformin and valinomycin at sublethal concentrations of 1.5, 4 and 5 ng mL^−1, respectively—promoted the acceleration of glycolysis.
# The test for mitochondrial damage as indicated by accelerated glucose consumption and extracellular acidosis was described earlier. The PK-15 cells were grown in 8-well flat-bottom chamber glass slides, seeded to a density of 4 × 10^4 cells mL^−1, in the respective medium for 48 h. The twofold serially diluted test substances or the vehicle only was dispensed into the wells. The glucose content of the wells was measured by using a glucose meter (Precision Xceed; Abbott Diabetes Care Ltd., Berkshire, United Kingdom). In wells that received nothing or the vehicle only, the glucose concentration decreased from an initial concentration (0 h) of 12 to 6 mM (24 h), but the pH remained as pH of 7.2. A glucose concentration after 24 h of ≤3 mM indicated excessive glucose consumption. Prior to the measurement of the pH, the chamber slides were transferred into ambient air for 1 h to allow CO2 to evaporate. A pH drop of 0.5 units in the toxin-exposed well compared to the vehicle only was considered proof of acidosis. Mitochondrial depolarization (ΔΨm assay) was read by a fluorescence microscope after 26 h of exposure to the toxicants from the monolayers double stained with the membrane potential-responsive fluorogenic dye JC-1 and with propidium iodide to assess the relaxing of the plasma membrane permeability barrier, similar to what was reported previously for sperm cells (27).
# [8] = 20 min, motile boar sperm, 20 min, 37 °C
# [9] = 48 h, 24 °C, 2 days, read-out: EC50 Sublethal Toxicity BSMIR 2 days
# [10] = 48 h, JC-1, 2 days, read-out: EC50 Sublethal Toxicity Depletion of ΔΨm 2 days
# [11] = 24 h, PK-15, 1 day, read-out: EC50 Sublethal Toxicity Acceleration of glycolysis 1 day
# [12] = 48 h, PK-15, 2 days, read-out: EC50 Sublethal Toxicity Acidosis 2 days
Compound,EC50 (boar spermatozoa [1]; [8]) [µg/mL],"EC50 (boar spermatozoa [2]; motile boar sperm, 2 h, 37 °C) [µg/mL]","EC50 ([3]; PK-15, 2 days, 37 °C) [µg/mL]","EC50 Sublethal Toxicity BSMIR 2 days (resting boar spermatozoa [6]; 24 °C, 2 days) [µg/mL]","EC50 Sublethal Toxicity Depletion of ΔΨm 2 days (resting boar spermatozoa [7]; JC-1, 2 days)","EC50 Sublethal Toxicity Acceleration of glycolysis 1 day (resting PK-15 cells; PK-15, 1 day)","EC50 Sublethal Toxicity Acidosis 2 days (resting PK-15 cells; PK-15, 2 days)",sublethal concentration that promoted the acceleration of glycolysis (resting PK-15 cells) [ng/mL],lethal concentration in resting PK-15 cells (number in parenthesis) (resting PK-15 cells) [µg/mL],CC50 (resting boar spermatozoa [5]) [µg/mL],EC50 (resting boar spermatozoa [6]; [9]) [ng/mL],EC50 (resting boar spermatozoa [7]; [10]) [ng/mL],EC50 (resting PK-15 cells; [11]) [µg/mL],EC50 (resting PK-15 cells; [12]) [µg/mL],also measured
"COc1cc2c(c3oc4cccc(O)c4c(=O)c13)[C@@H]1C=CO[C@@H]1O2 [Sterigmatocystin, sterigmatocystin]",–,–,–,–,–,–,–,–,–,–,–,–,–,–,EC50 BSMIM Boar Sperm 20 min (boar spermatozoa [1]): >20 µg dry wt mL^−1; EC50 SMIDM Boar Sperm 2 h (boar spermatozoa [2]): >20 µg dry wt mL^−1; EC50 ICP PK-15 2 days [3]: 0.5 µg dry wt mL^−1
"CC1=C2C(=CO[C@H](C)[C@H]2C)C(O)=C(C(=O)O)C1=O [Citrinin, reference compound]",> 100,50,10,–,–,–,–,–,–,–,–,–,–,–,"EC50 ([4]; Mus musculus, Neuroblastoma cell, 48 h, read-out: EC50 ICP MNA 2 days): 10 µg/mL"
Alamethicin,–,–,–,0.2,0.2 µg/mL,None,None,–,–,–,–,–,–,–,"EC50 BSMIM Boar Sperm 20 min (boar spermatozoa [1]; motile boar sperm, 20 min, 37 °C): 5 µg dry wt mL^−1; EC50 SMIDM Boar Sperm 2 h (boar spermatozoa [2]; motile boar sperm, 2 h, 37 °C): 1 µg dry wt mL^−1; EC50 ICP PK-15 2 days ([3]; PK-15, 2 days, 37 °C): 8 µg dry wt mL^−1; EC50 ICP MNA 2 days [4]: 8 µg dry wt mL^−1; EC50 Lethal Toxicity SMIDR 2 days (resting boar spermatozoa [5]): 0.2 µg/mL"
O=c1cc(O)c1=O [Moniliformin],–,–,–,2,None,4 µg/mL,4 µg/mL,4,40,–,–,–,–,–,–
CC(C)[C@H]1C(=O)O[C@H](C(C)C)C(=O)N(C)[C@@H](C(C)C)C(=O)O[C@H](C(C)C)C(=O)N(C)[C@@H](C(C)C)C(=O)O[C@H](C(C)C)C(=O)N1C [Enniatin B],–,–,–,–,–,–,–,–,50,> 50,5000,5000,5,5,–
CC(C)[C@@H]1NC(=O)[C@H](C)OC(=O)[C@@H](C(C)C)NC(=O)[C@@H](C(C)C)OC(=O)[C@H](C(C)C)NC(=O)[C@H](C)OC(=O)[C@@H](C(C)C)NC(=O)[C@@H](C(C)C)OC(=O)[C@H](C(C)C)NC(=O)[C@H](C)OC(=O)[C@@H](C(C)C)NC(=O)[C@@H](C(C)C)OC1=O [Valinomycin],0.0001,70,14,–,–,–,–,5,5,5,0.05,0.05,0.005,0.005,"EC50 (resting boar spermatozoa [6]; 96 h, 4 days, read-out: EC50 Sublethal Toxicity BSMIR 4 days): 0.05 ng/mL; EC50 (resting boar spermatozoa [7]; 96 h, JC-1, 4 days, read-out: EC50 Sublethal Toxicity Depletion of ΔΨm 4 days): 0.05 ng/mL"
